Experimental data taken from patent publication US20060115815A1 (priority 2002, published 2006).
Where two headings read alike, the source gives them in different places.

Assays:
[1] = tested on: 48V54V82S; assay: microbe, parasite or virus in culture; design: species or system HIV-1; settings: Human immunodeficiency virus 1, read-out: Cell-based assay (MT-4) EC50 48V54V82S
[2] = target: T1, 84V90M (Human immunodeficiency virus type 1 group M subtype B, UniProt P04585, I572V/L578M); assay: cell-based; design: species or system HIV-1
[3] = tested on: 30N82I88D; assay: microbe, parasite or virus in culture; format: cell-based, HIV-1; settings: Human immunodeficiency virus 1, read-out: Cell-based assay (MT-4) EC50 30N82I88D
[4] = tested on: 48V82A90M; assay: microbe, parasite or virus in culture; design: species or system HIV-1; settings: Human immunodeficiency virus 1, read-out: Cell-based assay (MT-4) EC50 48V82A90M
[5] = tested on: 48V54V82A; assay: microbe, parasite or virus in culture; format: cell-based, HIV-1; settings: Human immunodeficiency virus 1, read-out: Cell-based assay (MT-4) EC50 48V54V82A
[6] = tested on: 46I50V; assay: microbe, parasite or virus in culture; format: cell-based, HIV-1; settings: Human immunodeficiency virus 1, read-out: Cell-based assay (MT-4) EC50 46I50V
[7] = tested on: WT; assay: microbe, parasite or virus in culture; format: cell-based, HIV-1; settings: Human immunodeficiency virus 1, read-out: Cell-based assay (MT-4) EC50 WT
[8] = target: T1, 84V90M; assay: biochemical; design: species or system HIV-1
[9] = tested on: WT HIV-1; assay: microbe, parasite or virus in culture; format: cell-based
[10] = target: recombinant HIV-1 protease (Human immunodeficiency virus type 1 group M subtype B, UniProt P04585); assay: biochemical; format: biochemical; settings: for IC50: read-out: Enzymatic assay WT IC50/nM
[11] = tested on: 30N82I88D; design: species or system HIV-1; settings: MT-4, 30N82I88D; read-out: Cell-based assay (MT-4) EC50/nM 30N82I88D
[12] = tested on: 48V54V82S; design: species or system HIV-1; settings: MT-4, 48V54V82S; read-out: Cell-based assay (MT-4) EC50/nM 48V54V82S
[13] = tested on: 48V82A90M; design: species or system HIV-1; settings: MT-4, 48V82A90M; read-out: Cell-based assay (MT-4) EC50/nM 48V82A90M
[14] = tested on: 46I50V; design: species or system HIV-1; settings: MT-4, 46I50V; read-out: Cell-based assay (MT-4) EC50/nM 46I50V
[15] = target: T1, 84V90M; assay: Enzymatic assay, IC50 against 84V90M mutant protease; format: biochemical, HIV-1
[16] = tested on: 48V54V82A; design: species or system HIV-1; settings: MT-4, 48V54V82A; read-out: Cell-based assay (MT-4) EC50/nM 48V54V82A
[17] = tested on: mutant HIV-1 with I84V/L90M mutations in the protease gene; format: cell-based; settings: MT-4, 84V90M; read-out: Cell-based assay (MT-4) EC50/nM 84V90M
[18] = tested on: MT-2 cells
[19] = tested on: wild-type HIV-1 strain IIIB; assay: microbe, parasite or virus in culture; format: cell-based; settings: read-out: EC50
[20] = target: T2, GS-7340 Ester Hydrolase (Homo sapiens, UniProt P10619); assay: biochemical
T2 construct: from tissue; host or cells: human peripheral blood mononuclear cells (extract and column pools)

[21] = tested on: Quiescent PBMC
[22] = tested on: recombinant HIV-1 strains with resistance mutations in the protease gene; assay: Cross-resistance profile assay, whole panel of mutant viruses; format: cell-based
[23] = tested on: MT-2 cells; remark: listed apart in the source
[24] = tested on: PBMC in intact human whole blood
[25] = tested on: recombinant HIV-1 strain, protease 10R/46I/82T/84V
[26] = tested on: recombinant HIV-1 strain, protease 46I/84A
[27] = tested on: recombinant HIV-1 strain, protease 10I/84V/71V/73S/90M
[28] = tested on: recombinant HIV-1 strain, protease 10F/46I/71V/82T/90M
[29] = tested on: recombinant HIV-1 strain, protease 46I/47V/50V
[30] = tested on: recombinant HIV-1 strain, protease 10I/48V/71V/82A/90M
[31] = tested on: recombinant HIV-1 strain, protease 48V/54V/71V/82S
[32] = MT-4, WT, read-out: Cell-based assay (MT-4) EC50/nM WT

T2 sequence (P10619 29-326 limits assumed): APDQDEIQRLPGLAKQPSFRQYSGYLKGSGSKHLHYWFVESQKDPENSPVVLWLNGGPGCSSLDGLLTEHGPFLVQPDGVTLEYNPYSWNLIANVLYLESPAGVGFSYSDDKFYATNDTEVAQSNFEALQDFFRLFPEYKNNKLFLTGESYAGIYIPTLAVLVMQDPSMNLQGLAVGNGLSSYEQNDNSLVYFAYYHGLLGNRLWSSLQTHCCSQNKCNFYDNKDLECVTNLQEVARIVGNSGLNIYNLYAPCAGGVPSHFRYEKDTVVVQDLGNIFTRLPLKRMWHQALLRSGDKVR
T2 sequence (P10619 327-480 limits assumed): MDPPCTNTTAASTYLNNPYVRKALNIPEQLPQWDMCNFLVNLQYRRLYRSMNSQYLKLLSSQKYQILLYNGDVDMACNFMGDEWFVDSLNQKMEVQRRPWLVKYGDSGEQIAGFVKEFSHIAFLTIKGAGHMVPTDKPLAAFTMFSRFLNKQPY

## CCOP(=O)(COc1ccc(CC2C(O)C(O)C(Cc3ccc(OC)cc3)N(Cc3cccnc3)C(=O)N2Cc2cccnc2)cc1)OCC (stereo not drawn) [OCH3, m-pyridine, OCH2PO3Et2]
[1]
  EC50: 970 nM
[2]
  EC50: 765 nM
[3]
  EC50: 106 nM
[4]
  EC50: 480 nM
[5]
  EC50: 1020 nM
[6]
  EC50: 352 nM

## CCCCN1C(=O)N(Cc2ccc3[nH]nc(N)c3c2)C(Cc2ccccc2)C(O)C(O)C1Cc1ccccc1 (stereo not drawn) [CH3 (DMP-851)]
[7]
  EC50: 54 nM
[1]
  EC50: 30 nM
[2]
  EC50: 918 nM
[3]
  EC50: 69 nM
[8]
  IC50: 9.4 nM
[4]
  EC50: 22 nM
[5]
  EC50: 33 nM
[6]
  EC50: 17 nM

## CCOC(=O)C(C)NP(=O)(COc1ccc(C[C@@H]2[C@H](O)[C@@H](O)[C@@H](Cc3ccccc3)N(Cc3ccccc3)C(=O)N2Cc2ccccc2)cc1)Oc1ccccc1 (stereo partly drawn) [R=H, R1=Ph, R2=Mono-Ala-Et]
[9]; [32]
  EC50: 310 nM
[10]
  IC50: 5 nM
[11]
  EC50: 238 nM
[12]
  EC50: 1950 nM
[13]
  EC50: 2450 nM
[14]
  EC50: 1250 nM
[15]
  IC50: 50 nM
[16]
  EC50: 2850 nM
[17]
  EC50: 2940 nM

## CCOP(=O)(COc1ccc(CC(NC(=O)OC2COC3OCCC23)C(O)CN(CC(C)C)S(=O)(=O)c2ccc(OC)cc2)cc1)OCC (stereo not drawn) [drawing 651 R1=OEt R2=OEt]
[18]
  CC50: 5000 to 50000 nM
[19]
  EC50: < 50 nM

## O=c1oc(Cl)c(Cl)c2ccccc12 [3,4-DCI, 3,4 dichloroisocoumarin, reference compound]
[20]
  IC50: 4000 nM

## CCCCOC(=O)C(C)NP(=O)(COc1ccc(CC(NC(=O)OC2COC3OCCC23)C(O)CN(CC(C)C)S(=O)(=O)c2ccc(OC)cc2)cc1)NC(C)C(=O)OCCCC (stereo not drawn) [GS-16503]
[21]
  Cell-Associated PI, pmol/mln cells: Prodrug: 0 pmol/mln cells
[22]; of 11 mutant viruses, resistance = 5-fold and higher change in EC50 relative to wild-type
  Total No. of Resistant Viruses: 0
[23]
  Metabolism (conversion to acid metabolites), increase at 1 μM vs. 10 μM: 3 fold
[24]
  Intracellular Acid Metabolite Concentration: 279 ± 47 µM
  Intracellular Prodrug Concentration: 61 ± 40 µM
  Intracellular Prodrug and Metabolites Concentration, uM: Acid Metabolite: 279 ± 47 µM
  Intracellular Prodrug and Metabolites Concentration: Prodrug: 61 ± 40 µM
  Intracellular Prodrug and Metabolites Concentration: Total: 340 ± 35 µM

## CCOP(=O)(CCNC(=O)Oc1ccc(C[C@@H]2[C@H](O)[C@@H](O)[C@@H](Cc3ccc(OC)cc3)N(Cc3ccc(O)cc3)C(=O)N2Cc2ccc(O)cc2)cc1)OCC [R=OCH3, R1=Ph-pOH, R2=OCONH(CH2)2PO3Et2]
[9]; [32]
  EC50: 33 nM
[11]
  EC50: 31 nM
[12]
  EC50: 51 nM
[13]
  EC50: 55 nM
[14]
  EC50: 223 nM
[17]
  EC50: 495 nM

## CCOC(=O)C(C)OP(=O)(COc1ccc(C[C@H](NC(=O)O[C@H]2CO[C@H]3OCC[C@H]32)[C@H](O)CN(CC(C)C)S(=O)(=O)c2ccc(OC)cc2)cc1)Oc1ccccc1 (stereo partly drawn) [GS-17394]
[21]
  Cell-Associated PI, pmol/mln cells: Prodrug: 0 pmol/mln cells
[23]
  Metabolism (conversion to acid metabolites), increase at 1 μM vs. 10 μM: independent
[24]
  Intracellular Acid Metabolite Concentration: 629 ± 303 µM
  Intracellular Prodrug Concentration: 69 ± 85 µM
  Intracellular Prodrug and Metabolites Concentration, uM: Acid Metabolite: 629 ± 303 µM
  Intracellular Prodrug and Metabolites Concentration: Prodrug: 69 ± 85 µM
  Intracellular Prodrug and Metabolites Concentration: Total: 698 ± 301 µM

## CCOP(=O)(COc1ccc(C[C@@H]2[C@H](O)[C@@H](O)[C@@H](Cc3ccccc3)N(Cc3cccc(N)c3)C(=O)N2Cc2cccc(N)c2)cc1)OCC [R=H, R1=Ph-mNH2, R2=OCh2PO3Et2]
[9]; [32]
  EC50: 65 nM
[11]
  EC50: 16 nM
[12]
  EC50: 146 nM
[14]
  EC50: 46 nM
[16]
  EC50: 168 nM
[17]
  EC50: 328 nM

## Cc1cccc(C)c1OCC(=O)N[C@@H](Cc1ccccc1)[C@@H](O)C[C@H](Cc1ccccc1)NC(=O)[C@H](C(C)C)N1CCCNC1=O [Lopinavir]
[9]; Human immunodeficiency virus 1, read-out: EC50 [nM] WT HIV-1
  EC50: 8 nM
[25]
  Fold Change in EC50 Relative to WT HIV-1: 11
[26]
  Fold Change in EC50 Relative to WT HIV-1: 9
[27]
  Fold Change in EC50 Relative to WT HIV-1: 11
[28]
  Fold Change in EC50 Relative to WT HIV-1: 7.5
[22]; {}
  Total No. of Resistant Viruses: 6
[29]
  Fold Change in EC50 Relative to WT HIV-1: 19
[30]
  Fold Change in EC50 Relative to WT HIV-1: 4.5
[31]
  Fold Change in EC50 Relative to WT HIV-1: 60

## O=C1N(Cc2ccccc2)[C@H](Cc2ccccc2)[C@H](O)[C@@H](O)[C@@H](Cc2ccccc2)N1Cc1ccc2[nH]nc(O)c2c1
[9]; [32]
  EC50: 1230 nM
[10]; read-out: Enzymatic assay Ki
  Ki: 0.42 nM
[10]
  IC50: 6.6 nM
[11]
  EC50: 869 nM
[14]
  EC50: 937 nM
[15]
  IC50: 85 nM
[16]
  EC50: 774 nM
[17]
  EC50: > 600 nM

## CCOP(=O)(COc1ccc(C[C@H](NC(=O)O[C@H]2CO[C@H]3OCC[C@H]32)[C@H](O)CN(CC(C)C)S(=O)(=O)c2ccc(OC)cc2)cc1)OCC [Compound 13]
[18]
  CC50: 50000 nM

## CCOC(=O)C(C)OP(=O)(CCNCc1ccc(C[C@H](NC(=O)O[C@H]2CO[C@H]3OCC[C@H]32)[C@H](O)CN(CC(C)C)S(=O)(=O)c2ccc(OC)cc2)cc1)Oc1ccccc1 (stereo partly drawn) [drawing 662 R1=Ph R2=Lac-Et]
[18]
  CC50: > 50000 nM
[19]
  EC50: 50 to 500 nM

## CCOP(=O)(CCNC(=O)Oc1ccc(C[C@@H]2[C@H](O)[C@@H](O)[C@@H](Cc3ccc(OC)cc3)N(Cc3cccc(N)c3)C(=O)N2Cc2cccc(N)c2)cc1)OCC [R=OCH3, R1=Ph-mNH2, R2=OCONH(CH2)2PO3Et2]
[11]
  EC50: 77 nM
[12]
  EC50: 214 nM
[13]
  EC50: 215 nM
[14]
  EC50: 184 nM
[16]
  EC50: 262 nM
[17]
  EC50: 2260 nM

## CCOP(=O)(CNC(=O)Oc1ccc(C[C@@H]2[C@H](O)[C@@H](O)[C@@H](Cc3ccc(OC)cc3)N(Cc3cccc(N)c3)C(=O)N2Cc2cccc(N)c2)cc1)OCC [R=OCH3, R1=Ph-mNH2, R2=OCONH(CH2)PO3Et2]
[9]; [32]
  EC50: 58 nM
[10]
  IC50: 9.9 nM
[11]
  EC50: 68 nM
[12]
  EC50: 203 nM
[13]
  EC50: 185 nM
[14]
  EC50: 104 nM
[15]
  IC50: 85 nM
[16]
  EC50: 223 nM
[17]
  EC50: 2150 nM

## CCOP(=O)(COc1ccc(CC2C(O)C(O)C(Cc3ccc(OC)cc3)N(Cc3ccc(O)cc3)C(=O)N2Cc2ccc(O)cc2)cc1)OCC (stereo not drawn) [OCH3, Ph-pOH, OCH2PO3Et2]
[1]
  EC50: 106 nM
[3]
  EC50: 23 nM
[4]
  EC50: 48 nM

## CCOC(=O)C(CC)OP(=O)(CCNCc1ccc(C[C@H](NC(=O)O[C@H]2CO[C@H]3OCC[C@H]32)[C@H](O)CN(CC(C)C)S(=O)(=O)c2ccc(OC)cc2)cc1)Oc1ccccc1 (stereo partly drawn) [drawing 662 R1=Ph R2=Hba-Et]
[18]
  CC50: 5000 to 50000 nM
[19]
  EC50: 50 to 500 nM
